Reference: patent US4808614A (priority 1987, dated 1989)

How the values were obtained:
[1] = tested on: P1534J lymphatic leukemia; experiment: Oncolytic activity in tumor system P1534J lymphatic leukemia; type: in vivo
6C3HED lymphosarcoma = experiment: Oncolytic activity in tumor system 6C3HED lymphosarcoma; type: in vivo
[2] = tested on: L1210V lymphocytic leukemia; experiment: Oncolytic activity in tumor system L1210V lymphocytic leukemia; type: in vivo
CA-755 adenocarcinoma = experiment: Oncolytic activity in tumor system CA-755 adenocarcinoma; type: in vivo
[3] = tested on: X5563 plasma cell myeloma; experiment: Oncolytic activity in tumor system X5563 plasma cell myeloma; type: in vivo
Pseudorabies Virus = experiment: microbe, parasite or virus in culture; type: cell-based; conditions: Suid alphaherpesvirus 1, BSC-1, in Chlorocebus sabaeus, 72 h, read-out: Percent Plaque Inhibition
Herpes simplex, type I = experiment: cells; type: cell-based, Herpes simplex virus; conditions: Chlorocebus sabaeus, BSC-1, 72 h, read-out: Percent Plaque Inhibition

## Nc1ccn(C2O[C@H](CO)[C@@H](O)C2(F)F)c(=O)n1 (some centres unmarked) [Example 8, 1-(2-oxo-4-amino-1H-pyrimidin-1-yl)-2-desoxy-2,2-difluororibose]
[1]
  oncolytic activity: demonstrated activity
6C3HED lymphosarcoma
  oncolytic activity: demonstrated activity
[2]
  oncolytic activity: demonstrated activity
CA-755 adenocarcinoma
  oncolytic activity: demonstrated activity
[3]
  oncolytic activity: demonstrated activity

## Cc1cn(C2O[C@H](CO)[C@@H](O)C2(F)F)c(=O)[nH]c1=O (some centres unmarked) [DFAT, 1-(5-methyl-2,4-dioxo-1H,3H-pyrimidin-1-yl)-2-desoxy-2,2-difluororibose]
Pseudorabies Virus
  inhibition at 3 µg/mL: 5%
  inhibition at 6 µg/mL: 6%
  inhibition at 12 µg/mL: 12%
  inhibition at 25 µg/mL: 15%
  inhibition at 50 µg/mL: 18%
  inhibition at 100 µg/mL: 23%
Herpes simplex, type I
  inhibition at 0.39 µg/mL: 4%
  inhibition at 0.78 µg/mL: 8%
  inhibition at 1.56 µg/mL: 0%
  inhibition at 3.12 µg/mL: 12%
  inhibition at 6.25 µg/mL: 15%
  inhibition at 12.5 µg/mL: 35%
  inhibition at 25 µg/mL: 53%
  inhibition at 50 µg/mL: 72%
  inhibition at 100 µg/mL: 96%
